Measurements taken from ChEMBL document CHEMBL3091298, “Bis-phosphonium salts of pyridoxine: the relationship between structure and antibacterial activity” (Bioorg Med Chem, 2013).
In brackets after ≈: the same amount, converted by molar mass.

What was measured:
[1] = system: Staphylococcus epidermidis; assay: Antibacterial activity against Staphylococcus epidermidis after 18 to 24 hrs; format: functional
Proteus sp. = assay: Antibacterial activity against Proteus sp. after 18 to 24 hrs; format: functional; conditions: Proteus sp. (in: enterobacteria)
[2] = Genotoxicity in uvrA-deficient Escherichia coli assessed as survival at 100 ug/ml after 6 hrs by DNA-repair test; format: toxicity, organism-based; conditions: read-out: Survival
Salmonella typhimurium [3] = assay: Mutagenic activity in Salmonella typhimurium TA100 assessed as increase in number of revertants at 100 ug/ml by Ames test relative to solvent control; format: toxicity, organism-based; conditions: salmonella enterica subsp. enterica serovar typhimurium
[4] = Genotoxicity in recA-deficient Escherichia coli assessed as survival at 1 ug/ml after 6 hrs by DNA-repair test; format: toxicity, organism-based; conditions: read-out: Survival
HEK293 = assay: (§1) Cytotoxicity against HEK293 cells after 72 hrs by MTT assay; format: cell-based; conditions: human, hek293, 72 h
[5] = Genotoxicity in polA-deficient Escherichia coli assessed as survival at 1 ug/ml after 6 hrs by DNA-repair test; format: toxicity, organism-based; conditions: read-out: Survival
[6] = Genotoxicity in recA-deficient Escherichia coli assessed as survival at 100 ug/ml after 6 hrs by DNA-repair test; format: toxicity, organism-based; conditions: read-out: Survival
Klebsiella pneumoniae = assay: Antibacterial activity against Klebsiella pneumoniae after 18 to 24 hrs; format: functional
[7] = Genotoxicity in uvrA-deficient Escherichia coli assessed as survival at 10 ug/ml after 6 hrs by DNA-repair test; format: toxicity, organism-based; conditions: read-out: Survival
[8] = Genotoxicity in recA-deficient Escherichia coli assessed as survival at 10 ug/ml after 6 hrs by DNA-repair test; format: toxicity, organism-based; conditions: read-out: Survival
[9] = Genotoxicity in polA-deficient Escherichia coli assessed as survival at 100 ug/ml after 6 hrs by DNA-repair test; format: toxicity, organism-based; conditions: read-out: Survival
[10] = Genotoxicity in polA-deficient Escherichia coli assessed as survival at 10 ug/ml after 6 hrs by DNA-repair test; format: toxicity, organism-based; conditions: read-out: Survival
Salmonella typhimurium [11] = assay: Mutagenic activity in Salmonella typhimurium TA100 assessed as increase in number of revertants at 1 ug/ml by Ames test relative to solvent control; format: toxicity, organism-based; conditions: salmonella enterica subsp. enterica serovar typhimurium
[12] = Genotoxicity in uvrA-deficient Escherichia coli assessed as survival at 1 ug/ml after 6 hrs by DNA-repair test; format: toxicity, organism-based; conditions: read-out: Survival
Salmonella typhimurium [13] = assay: Mutagenic activity in Salmonella typhimurium TA100 assessed as increase in number of revertants at 10 ug/ml by Ames test relative to solvent control; format: toxicity, organism-based; conditions: salmonella enterica subsp. enterica serovar typhimurium
Staphylococcus aureus = assay: Antibacterial activity against Staphylococcus aureus after 18 to 24 hrs; format: functional
[14] = as §1; format: cell-based; conditions: human, HEK293 cells

| Structure (SMILES) | MIC [1] [µg/mL] | MIC (Proteus sp.) [µg/mL] | MIC (Klebsiella pneumoniae) [µg/mL] | MIC (Staphylococcus aureus) [µg/mL] | CC50 at 72 h [14] [µg/mL] | other results |
| --- | --- | --- | --- | --- | --- | --- |
| Cc1nc(C[P+](c2ccccc2)(c2ccccc2)c2ccccc2)c(C[P+](c2ccccc2)(c2ccccc2)c2ccccc2)c2c1OC(C)(C)OC2.[Cl-].[Cl-] | 5 | > 1000 | > 1000 | 5 | – | viability at 6 h, 100 ug/ml [2]: 68.9%; Ratio (Salmonella typhimurium [3]): 0.85; viability at 6 h, 1 ug/ml [4]: 88.8%; CC50 (HEK293): 72 µg/mL; viability at 6 h, 1 ug/ml [5]: 114%; viability at 6 h, 100 ug/ml [6]: 70.1%; viability at 6 h, 10 ug/ml [7]: 114%; viability at 6 h, 10 ug/ml [8]: 79.3%; viability at 6 h, 100 ug/ml [9]: 59.4%; viability at 6 h, 10 ug/ml [10]: 112%; Ratio (Salmonella typhimurium [11]): 0.76; viability at 6 h, 1 ug/ml [12]: 103%; Ratio (Salmonella typhimurium [13]): 0.88 |
| Cc1nc(C[P+](c2ccccc2)(c2ccccc2)c2ccccc2)c(C[P+](c2ccccc2)(c2ccccc2)c2ccccc2)c2c1OC(C)(C)OC2.[Br-].[Br-] | 2.5 | > 1000 | > 1000 | 1.25 | – | CC50 (HEK293): 27.5 µg/mL |
| Cc1nc(C[P+](c2ccccc2)(c2ccccc2)c2ccccc2)c(C[P+](c2ccccc2)(c2ccccc2)c2ccccc2)c2c1OC(C)(C)OC2.O=[N+]([O-])[O-].O=[N+]([O-])[O-] | 100 | > 1000 | 1000 | 100 | – | – |
| Cc1nc(C[P+](c2ccccc2)(c2ccccc2)c2ccccc2)c(C[P+](c2ccccc2)(c2ccccc2)c2ccccc2)c2c1OC(C)(C)OC2.[I-].[I-] | 10 | > 1000 | > 1000 | 10 | – | – |
| CCCC1OCc2c(C[P+](c3ccccc3)(c3ccccc3)c3ccccc3)c(C[P+](c3ccccc3)(c3ccccc3)c3ccccc3)nc(C)c2O1.[Cl-].[Cl-] (centres undefined) | 1 | > 1000 | > 1000 | 1 | 3 | viability at 6 h, 100 ug/ml [2]: 64.4%; Ratio (Salmonella typhimurium [3]): 1.08; viability at 6 h, 1 ug/ml [4]: 87.8%; viability at 6 h, 1 ug/ml [5]: 110%; viability at 6 h, 100 ug/ml [6]: 80.4%; viability at 6 h, 10 ug/ml [7]: 116%; viability at 6 h, 10 ug/ml [8]: 83.1%; viability at 6 h, 100 ug/ml [9]: 57.7%; viability at 6 h, 10 ug/ml [10]: 108%; Ratio (Salmonella typhimurium [11]): 0.91; viability at 6 h, 1 ug/ml [12]: 113%; Ratio (Salmonella typhimurium [13]): 1.12 |
| CCCC[P+](CCCC)(CCCC)Cc1nc(C)c2c(c1C[P+](CCCC)(CCCC)CCCC)COC(C)(C)O2.[Cl-].[Cl-] | 1.25 | > 1000 | > 1000 | 1.25 | 200 | viability at 6 h, 100 ug/ml [2]: 66.1%; Ratio (Salmonella typhimurium [3]): 1.04; viability at 6 h, 1 ug/ml [4]: 88.6%; viability at 6 h, 1 ug/ml [5]: 112%; viability at 6 h, 100 ug/ml [6]: 77.8%; viability at 6 h, 10 ug/ml [7]: 115%; viability at 6 h, 10 ug/ml [8]: 82.9%; viability at 6 h, 100 ug/ml [9]: 57.8%; viability at 6 h, 10 ug/ml [10]: 118%; Ratio (Salmonella typhimurium [11]): 0.82; viability at 6 h, 1 ug/ml [12]: 109%; Ratio (Salmonella typhimurium [13]): 1.21 |
| Cc1ccc([P+](Cc2nc(C)c3c(c2C[P+](c2ccc(C)cc2)(c2ccc(C)cc2)c2ccc(C)cc2)COC(C)(C)O3)(c2ccc(C)cc2)c2ccc(C)cc2)cc1.[Cl-].[Cl-] | 1 | > 1000 | > 1000 | 1 | 29.5 | – |
| Cc1nc(C[P+](c2cccs2)(c2cccs2)c2cccs2)c(C[P+](c2cccs2)(c2cccs2)c2cccs2)c2c1OC(C)(C)OC2.[Cl-].[Cl-] | 100 | > 1000 | > 1000 | 100 | – | – |
| Cc1nc(C[P+](c2ccc(F)cc2)(c2ccc(F)cc2)c2ccc(F)cc2)c(C[P+](c2ccc(F)cc2)(c2ccc(F)cc2)c2ccc(F)cc2)c2c1OC(C)(C)OC2.[Cl-].[Cl-] | 50 | > 1000 | > 1000 | 50 | – | – |
| Cc1nc2c(c3c1OC(C)(C)OC3)C[P+](c1ccccc1)(c1ccccc1)CC[P+](c1ccccc1)(c1ccccc1)C2.[Cl-].[Cl-] | 100 | > 1000 | > 1000 | 125 | – | – |
| CCCC[P+](CCCC)(CCCC)Cc1nc(C)c(O)c(CO)c1C[P+](CCCC)(CCCC)CCCC.Cl.[Cl-].[Cl-] | 1000 | > 1000 | > 1000 | 1000 | – | – |
| Cc1ccc([P+](Cc2nc(C)c(O)c(CO)c2C[P+](c2ccc(C)cc2)(c2ccc(C)cc2)c2ccc(C)cc2)(c2ccc(C)cc2)c2ccc(C)cc2)cc1.Cl.[Cl-].[Cl-] | > 1000 | > 1000 | > 1000 | > 1000 | – | – |
| Cc1cccc([P+](Cc2nc(C)c(O)c(CO)c2C[P+](c2cccc(C)c2)(c2cccc(C)c2)c2cccc(C)c2)(c2cccc(C)c2)c2cccc(C)c2)c1.Cl.[Cl-].[Cl-] | 12.5 | > 1000 | > 1000 | 12.5 | – | – |
| Cc1nc(C[P+](c2cccs2)(c2cccs2)c2cccs2)c(C[P+](c2cccs2)(c2cccs2)c2cccs2)c(CO)c1O.Cl.[Cl-].[Cl-] | > 1000 | > 1000 | > 1000 | 1000 | – | – |
| Cc1nc(C[P+](c2ccc(F)cc2)(c2ccc(F)cc2)c2ccc(F)cc2)c(C[P+](c2ccc(F)cc2)(c2ccc(F)cc2)c2ccc(F)cc2)c(CO)c1O.Cl.[Cl-].[Cl-] | 1000 | > 1000 | > 1000 | 1000 | – | – |
| Cc1nc2c(c(CO)c1O)C[P+](c1ccccc1)(c1ccccc1)CC[P+](c1ccccc1)(c1ccccc1)C2.Cl.[Cl-].[Cl-] | 500 | > 1000 | > 1000 | 500 | – | – |
| CN[C@H](CC(C)C)C(=O)N[C@H]1C(=O)N[C@@H](CC(N)=O)C(=O)N[C@H]2C(=O)N[C@H]3C(=O)N[C@H](C(=O)N[C@H](C(=O)O)c4cc(O)cc(O)c4-c4cc3ccc4O)[C@H](O)c3ccc(c(Cl)c3)Oc3cc2cc(c3O[C@@H]2O[C@H](CO)[C@@H](O)[C@H](O)[C@H]2O[C@H]2C[C@](C)(N)[C@H](O)[C@H](C)O2)Oc2ccc(cc2Cl)[C@H]1O [VANCOMYCIN] | 2.5 (≈ 1.73 µM) | > 1000 | > 1000 | 2.5 (≈ 1.73 µM) | > 1000 | – |

Second part, led by results:

| MIC [1] [µg/mL] | MIC (Proteus sp.) [µg/mL] | MIC (Klebsiella pneumoniae) [µg/mL] | MIC (Staphylococcus aureus) [µg/mL] | Structure (SMILES) | CC50 at 72 h [14] [µg/mL] | other results |
| --- | --- | --- | --- | --- | --- | --- |
| 10 | > 1000 | > 1000 | 10 | Cc1nc(C[P+](c2ccccc2)(c2ccccc2)c2ccccc2)c(CO)c2c1OC(C)(C)OC2.[Br-] | – | – |
| 2.5 | 1000 | 1000 | 2.5 | CCCC1OCc2c(C[P+](c3ccc(C)cc3)(c3ccc(C)cc3)c3ccc(C)cc3)c(C[P+](c3ccc(C)cc3)(c3ccc(C)cc3)c3ccc(C)cc3)nc(C)c2O1.[Cl-].[Cl-] (centres undefined) | 1 | – |
| 10 | > 1000 | > 1000 | 10 | CCC1OCc2c(C[P+](c3ccccc3)(c3ccccc3)c3ccccc3)c(C[P+](c3ccccc3)(c3ccccc3)c3ccccc3)nc(C)c2O1.[Cl-].[Cl-] (centres undefined) | 4 | – |
| 5 | > 1000 | > 1000 | 10 | Cc1nc(C[P+](c2ccccc2)(c2ccccc2)c2ccccc2)c(C[P+](c2ccccc2)(c2ccccc2)c2ccccc2)c2c1OC(C(C)C)OC2.[Cl-].[Cl-] (centres undefined) | 2.57 | – |
| 10 | > 1000 | 1000 | 5 | CCCCC1OCc2c(C[P+](c3ccccc3)(c3ccccc3)c3ccccc3)c(C[P+](c3ccccc3)(c3ccccc3)c3ccccc3)nc(C)c2O1.[Cl-].[Cl-] (centres undefined) | 2 | – |
| 5 | > 1000 | 1000 | 5 | CCCCCC1OCc2c(C[P+](c3ccccc3)(c3ccccc3)c3ccccc3)c(C[P+](c3ccccc3)(c3ccccc3)c3ccccc3)nc(C)c2O1.[Cl-].[Cl-] (centres undefined) | 1 | – |
| 10 | > 1000 | 1000 | 10 | CCCCCCCC1OCc2c(C[P+](c3ccccc3)(c3ccccc3)c3ccccc3)c(C[P+](c3ccccc3)(c3ccccc3)c3ccccc3)nc(C)c2O1.[Cl-].[Cl-] (centres undefined) | 0.5 | – |
| 10 | > 1000 | > 1000 | 12.5 | Cc1nc(C[P+](c2ccccc2)(c2ccccc2)c2ccccc2)c(C[P+](c2ccccc2)(c2ccccc2)c2ccccc2)c2c1OC(C)OC2.[Cl-].[Cl-] (centres undefined) | 33.9 | – |
| 1.25 | > 1000 | 1000 | 1.25 | Cc1cccc([P+](Cc2nc(C)c3c(c2C[P+](c2cccc(C)c2)(c2cccc(C)c2)c2cccc(C)c2)COC(C)(C)O3)(c2cccc(C)c2)c2cccc(C)c2)c1.[Cl-].[Cl-] | 13 | – |
